The results in this text go back to ChEMBL document CHEMBL4145539, “Phenylpyridine-2-ylguanidines and rigid mimetics as novel inhibitors of TNFα overproduction: Beneficial action in models of neuropathic pain and of acute lung inflammation” (Eur J Med Chem, 2018).

Data set [1] has as its system PBMC. The data set can be described thus: Anti-inflammatory activity in human PBMC assessed as inhibition of LPS-induced TNFalpha production at 10 uM after 24 hrs by ELISA relative to control. The data set is classed as functional. Background: ELISA stands for enzyme-linked immunosorbent assay.
In data set [2] the test system is PBMC. Kind of data set: Anti-inflammatory activity in human PBMC assessed as inhibition of LPS-induced IL-1beta production at 10 uM after 24 hrs by ELISA relative to control. It is filed as functional.
Data set [3] in a line: Cytotoxicity against human PBMC assessed as cell viability at 10 um after 24 hrs by WST-1 assay relative to control. It is filed as cell-based. The note with it: PBMC (peripheral blood mononuclear cells), read-out: Activity.
Data set [4] concerns PBMC. Kind of data set: Anti-inflammatory activity in human PBMC assessed as inhibition of LPS-induced TNFalpha production after 24 hrs by ELISA. The data set is classed as functional, cell-based.
Data set [5] relates to PBMC. The data set can be described thus: Anti-inflammatory activity in human PBMC assessed as inhibition of LPS-induced IL-1beta production after 24 hrs by ELISA. It is filed as functional, cell-based.
Data set [6] deals with Mus musculus. Kind of data set: Anti-inflammatory activity in LPS-induced acute lung inflammation C57BL/6 mouse model assessed as inhibition of neutrophils recruitment in BALF at 5 mg/kg, ip bid administered 1 hr before and 10 hrs after LPS treatment measured 24 hrs post LPS treatment by flow cytometry relative to control. The data set is classed as functional. To be noted: C57BL/6, ip. Background: In flow cytometry, cells or beads pass a laser one at a time.

Data set [7] has as its system Mus musculus. Kind of data set: Anti-inflammatory activity in LPS-induced acute lung inflammation C57BL/6 mouse model assessed as inhibition of lymphocytes recruitment in BALF at 5 mg/kg, ip bid administered 1 hr before and 10 hrs after LPS treatment measured 24 hrs post LPS treatment by flow cytometry relative to control. It is filed as functional. The note with it: C57BL/6, ip.

Data set [8] deals with Mus musculus. The data set can be described thus: Antiallodynic activity in C57BL/6J mouse model of sciatic nerve ligation-induced neuropathic pain assessed as increase in paw withdrawal latency time at 1 mg/kg, ip bid for 17 consecutive days starting from 2 to 3 weeks post surgery by Von Frey test. It is filed as functional, organism-based.
Data set [9] deals with Mus musculus. The data set can be described thus: Anti-inflammatory activity in LPS-induced acute lung inflammation C57BL/6 mouse model assessed as inhibition of TNFalpha level in BALF at 5 mg/kg, ip bid administered 1 hr before and 10 hrs after LPS treatment measured 24 hrs post LPS treatment by ELISA relative to control. It is filed as functional. The note with it: C57BL/6, ip.

Data set [10] relates to Mus musculus. The data set can be described thus: Toxicity in C57BL/6 mouse assessed as effect on number of inflammatory cells recovered in BALF at 5 mg/kg, ip bid administered 1 hr before and 10 hrs after LPS treatment measured 24 hrs post LPS treatment by flow cytometry. The data set is classed as organism-based. To be noted: in vivo.
Data set [11] deals with Mus musculus. The data set can be described thus: Antiallodynic activity in C57BL/6J mouse model of sciatic nerve ligation-induced neuropathic pain assessed as increase in paw withdrawal latency time at 5 mg/kg, ip bid for 17 consecutive days starting from 2 to 3 weeks post surgery measured on day 11 during compound dosing by Von Frey test. It is filed as functional, organism-based.

The test system of data set [12] is Mus musculus. The data set can be described thus: Antiallodynic activity in C57BL/6J mouse model of sciatic nerve ligation-induced neuropathic pain assessed as increase in paw withdrawal latency time at 1 mg/kg, ip bid for 17 consecutive days starting from 2 to 3 weeks post surgery measured on day 16 during compound dosing by Von Frey test. The data set is classed as functional, organism-based.

Data set [13] concerns Mus musculus. The data set can be described thus: Toxicity in C57BL/6J mouse model of sciatic nerve ligation-induced neuropathic pain assessed as behavioral changes at 1 to 5 mg/kg, ip bid for 17 consecutive days starting from 2 to 3 weeks post surgery. The data set is classed as organism-based. To be noted: in vivo.
Data set [14] concerns Mus musculus. The data set can be described thus: Toxicity in C57BL/6J mouse model of sciatic nerve ligation-induced neuropathic pain assessed as body weight loss at 5 mg/kg, ip bid for 17 consecutive days starting from 2 to 3 weeks post surgery relative to control. To be noted: in vivo. The data set is classed as organism-based.
Data set [15] relates to Mus musculus. The data set can be described thus: Toxicity in C57BL/6J mouse model of sciatic nerve ligation-induced neuropathic pain assessed as body weight loss at 1 mg/kg, ip bid for 17 consecutive days starting from 2 to 3 weeks post surgery. The note with it: in vivo. It is filed as organism-based.

Active and inactive are the calls of the source. The calls are words filed in the database; no cut-off is given here.

Consider `NC1=Nc2cc(-c3ccccc3)ccc2CCN1`, for which the inhibition (usually the relative decrease from the control value, in per cent) at 10 µM was -7% in the data set on PBMC [1] and -4% with PBMC [2]. In data set [3], the viability at 24 h, 10 µM was found to be 100%.
For `COc1ccc(-c2ccnc(NC(=N)N)c2)cc1` the same measures were 69%, 86% and 34%.
`N=C(N)Nc1ccc(-c2ccccc2Cl)cn1`: the inhibition at 10 µM with PBMC [1] stood at 82%; in the data set with PBMC [2] it was 96%. Moreover, in data set [3], the viability at 24 h, 10 µM was 55%.
With `N=C(N)Nc1ccc(-c2ccccc2)cn1`, the inhibition at 10 µM was -9% with PBMC [1] and -1% with PBMC [2]. For the same compound, the viability at 24 h, 10 µM in data set [3] came to 97%.
In the case of `N=C(N)Nc1cccc(-c2cccc(Cl)c2)n1`, the results for the inhibition at 10 µM with PBMC [1] and in the data set on PBMC [2] were 74% and 80%, respectively. The viability at 24 h, 10 µM in [3] amounted to 40%.
On the same counts, the results for `N=C(N)Nc1cc(-c2ccccc2Cl)ccn1` are 65%, 23% and 42%.
With `COc1ccc(C2CNC(=O)C2)cc1OC1CCCC1` (centres undefined) [ROLIPRAM], the inhibition at 10 µM in the data set on PBMC [1] turned out to be 79%. The IC50 (usually the concentration at which inhibition is half-maximal) in the data set on PBMC [4] amounted to 0.13 µM. Moreover, the viability at 24 h, 10 µM in data set [3] amounted to 104%.
Regarding `N=C(N)Nc1cc(-c2cccc(Cl)c2)ccn1`, the figures for the inhibition at 10 µM with PBMC [1] and in the data set with PBMC [2] were 64% and 53%, respectively. Further, in data set [3], the viability at 24 h, 10 µM was 38%.
Regarding `COc1ccc(-c2ccc(NC(=N)N)nc2)cc1`, the inhibition at 10 µM with PBMC [1] stood at 58%; in the data set with PBMC [2], 48%. Also, in [3], the viability at 24 h, 10 µM was 34%.
On to `NC1=Nc2cccc(-c3ccccc3)c2CN1`, for which the inhibition at 10 µM with PBMC [1] was found to be 7%; in the data set on PBMC [2], 0%. Besides, in data set [3], the viability at 24 h, 10 µM is 111%.
On the same counts, the results for `N=C(N)Nc1cccc(-c2ccc(Cl)cc2)n1` are 72%, 77% and 35%.
On the same counts, the results for `N=C(N)Nc1ccc(-c2ccc(Cl)cc2)cn1` are 72%, 97% and 23%.
Take `NC1=Nc2ccc(-c3ccccc3)cc2CN1`: in the data set with PBMC [1], the inhibition at 10 µM was found to be 22%. In addition, the viability at 24 h, 10 µM in [3] stood at 90%.
Turning to `COc1ccccc1-c1ccc(NC(=N)N)nc1`, the inhibition at 10 µM in the data set with PBMC [1] is 56%; with PBMC [2], 4%. For the same compound, the IC50 was 7.7 µM with PBMC [4] and above 30 µM in the data set with PBMC [5]. Moreover, in [3], the viability at 24 h, 10 µM was 78%.
On to `N=C(N)Nc1cc(-c2ccccc2)ccn1`, for which the inhibition at 10 µM in the data set with PBMC [1] turned out to be 67%; in the data set on PBMC [2] it was 91%. Moreover, the values for the IC50 in the data set on PBMC [4] and in the data set with PBMC [5] were 1.2 µM and 5.8 µM, respectively. Further, the inhibition in vivo (usually the share of the control response that was lost under treatment) at 5 mg/kg in the data set on Mus musculus [6] was 39%; with Mus musculus [7], 52%. Besides, the outcome with Mus musculus [8] was Active.
In the case of `N=C(N)Nc1cc(-c2ccc(Cl)cc2)ccn1`, the inhibition at 10 µM in the data set on PBMC [1] is 69%; in the data set with PBMC [2], 97%. In addition, in [3], the viability at 24 h, 10 µM came out at 24%.
With `COc1ccccc1-c1ccnc(NC(=N)N)c1`, the inhibition at 10 µM with PBMC [1] is 10%; with PBMC [2], -1%. The viability at 24 h, 10 µM in [3] amounted to 99%.
For the compound `NC(=S)Nc1cc(-c2ccccc2)ccn1`, the figures for the inhibition at 10 µM in the data set with PBMC [1] and in the data set on PBMC [2] were 4% and 1%, respectively. Besides, the viability at 24 h, 10 µM in data set [3] is 86%.
Consider `N=C(N)Nc1ccc(-c2cccc(Cl)c2)cn1`, for which the inhibition at 10 µM in the data set on PBMC [1] was 52%; in the data set on PBMC [2] it was 8%. In addition, the IC50 turned out to be 5.5 µM in the data set on PBMC [4] and 17.5 µM in the data set on PBMC [5]. Further, the viability at 24 h, 10 µM in [3] stood at 94%.
As for `N=C(N)Nc1cccc(-c2ccccc2Cl)n1`, the inhibition at 10 µM is 47% with PBMC [1] and 9% with PBMC [2]. The values for the IC50 with PBMC [4] and in the data set on PBMC [5] were 19.2 µM and above 30 µM, respectively. Further, the viability at 24 h, 10 µM in data set [3] stood at 74%.
As for `COc1cccc(-c2ccnc(NC(=N)N)c2)c1`, the inhibition at 10 µM worked out at 56% in the data set with PBMC [1] and 29% in the data set with PBMC [2]. Besides, the viability at 24 h, 10 µM in [3] stood at 66%.
On to `COc1ccccc1-c1cccc(NC(=N)N)n1`, for which the inhibition at 10 µM was 7% with PBMC [1] and 1% with PBMC [2]. For the same compound, the viability at 24 h, 10 µM in data set [3] was determined as 106%.
For `COc1ccc(-c2cccc(NC(=N)N)n2)cc1` the same measures were 27%, -6% and 94%.
As to `NC1=Nc2cc(-c3ccccc3)ccc2CN1`, the inhibition at 10 µM in the data set on PBMC [1] came to 76%; in the data set on PBMC [2], 93%. The concentration for half-maximal inhibition (IC50) in the data set on PBMC [4] turned out to be 1 µM; in the data set on PBMC [5], 3.7 µM. Further, the viability at 24 h, 10 µM in data set [3] came to 81%. Moreover, the figures for the inhibition in vivo at 5 mg/kg with Mus musculus [6], in the data set on Mus musculus [7] and in the data set with Mus musculus [9] were 62%, 63% and 49%, respectively. The Activity entry with Mus musculus [10] and in the data set on Mus musculus [13] was “Non-Toxic” throughout. In addition, the outcome with Mus musculus [11] and in the data set with Mus musculus [12] was Active.
As to `N=C(N)Nc1cc(-c2ccc(C(F)(F)F)cc2)ccn1`, the inhibition at 10 µM in the data set on PBMC [1] was 71%; with PBMC [2], 98%. Further, the viability at 24 h, 10 µM in data set [3] turned out to be 24%.
On to `NC(N)=Nc1cc(-c2ccccc2)ccn1`, for which, in data set [3], the viability at 24 h, 10 µM was 72%. For the same compound, the figures for the Activity entry with Mus musculus [10], in the data set with Mus musculus [14] and in the data set with Mus musculus [15] were “Non-Toxic”, 5% and “Non-Toxic”, respectively.
In the case of `Nc1nc2ccc(-c3ccccc3)cc2[nH]1`, the inhibition at 10 µM in the data set on PBMC [1] was found to be 15%; in the data set with PBMC [2] it was 3%. For the same compound, the viability at 24 h, 10 µM in data set [3] came out at 114%.
With `COc1cccc(-c2cccc(NC(=N)N)n2)c1`, the inhibition at 10 µM with PBMC [1] was found to be 7%; in the data set with PBMC [2] it was 2%. Moreover, the viability at 24 h, 10 µM in [3] worked out at 104%.
With `N=C(N)Nc1ncccc1-c1ccccc1`, the inhibition at 10 µM with PBMC [1] is 11%; in the data set on PBMC [2], 1%. In data set [3], the viability at 24 h, 10 µM came to 108%.
For `CNCCC=C1c2ccccc2CCc2ccccc21`, the result in the data set with Mus musculus [8] was inactive. For the same compound, the result in the data set with Mus musculus [11] was Active.
`COc1ccccc1-c1ccc2c(c1)CNC(N)=N2`: the inhibition at 10 µM with PBMC [1] was 13%; with PBMC [2], 1%. Besides, the viability at 24 h, 10 µM in [3] stood at 126%.
On the same counts, the results for `COc1cccc(-c2ccc(NC(=N)N)nc2)c1` are 25%, 4% and 116%.
In the case of `N=C(N)Nc1cccc(-c2ccccc2)n1`, the inhibition at 10 µM turned out to be 18% in the data set on PBMC [1] and 3% with PBMC [2]. The IC50 with PBMC [4] is 18.6 µM; with PBMC [5], above 30 µM. Moreover, the viability at 24 h, 10 µM in data set [3] came to 100%.
